# Measured values from US10779532B2, “Methods and compositions for killing of insect pest eggs” (North Carolina State University, priority 2016, dated 2020).
# What was measured:
# cotton bollworm eggs = experiment: Killing insect eggs, cotton bollworm model system (3 second dip, egg hatch over 4 days); assay type: in vivo; details: 2-undecanone from 1 to 8% in absolute ethanol, hatch assessed 4 days, highest level of the dose response
# Excerpt: Due to their obligate parasitic lifestyle, lice, head lice, in particular, are very difficult to obtain. Thus, bollworm eggs were used in place of lice eggs for the experiments showing efficacy of the treatments described herein. […] Therefore, it is understood that if the treatment works on bollworm eggs, it will also work on the eggs of head lice. Further, the experiments using body lice, a recognized proxy for head lice, confirmed the effectiveness of the treatment with the formulations of this invention.
# All treatments were conducted by dipping the bollworm eggs in the different treatments for 3 seconds, allowing the eggs to dry at room temperature, and then assessing egg hatch for the following 4 days. The eggs typically hatch under these conditions in 2.5 days. The solvent used in these experiments was absolute ethanol.
# insect pest eggs = experiment: Exposure of insect pest eggs to formulations, percent killed; assay type: in vivo
# Excerpt: As well understood, the percentage of eggs killed may depend on the concentration of the ovicide and the exposure time to the ovicide (e.g., the time for applying). Thus, applying or contacting of the compositions and formulations of the invention generally results in the killing of about 45% to about 100% (e.g., about 45, 50, 55, 60, 65, 70, 75, 80, 85, 90, 95, 100%) of the insect pest eggs for any given time period. However, the compositions and formulations are shown to work very quickly and efficiently, resulting in a killing of 100% of the insect pest eggs following a very short contact or application time. Thus, in some embodiments, a one to five second exposure results in a 100% kill of the insect pest eggs. In some embodiments, exposure of insect pest eggs to a formulation of 1% 2-undecanone and 1% DE for 3 seconds kills about 100% of the insect pest eggs. In some embodiments, exposure of insect pest eggs to a formulation of 8% 2-undecanone and 1% DE for 1 second kills about 100% of the insect pest eggs. In some embodiments, exposure of insect pest eggs to a formulation of 5% 2-undecanone for 1 second kills about 70% of the insect pest eggs. In some embodiments, exposure of insect pest eggs to a formulation of 15% 2-undecanone for about one to about five second kills about 100% of the insect pest eggs. […]
# [1] = Evaporation of 2-undecanone after application; assay type: physicochemical; details: typically
# lice = experiment: Killing of lice stages; assay type: in vivo; details: all stages of the lice
# eggs = experiment: Residual activity against eggs; assay type: in vivo; details: after application
smiles,measurement,setting,value
CCCCCCCCCC(C)=O [2-undecanone],egg mortality,cotton bollworm eggs,about 90%
same,insect pest eggs killed,"insect pest eggs; 5% 2-undecanone, exposure 1 second",about 70%
same,insect pest eggs killed,"insect pest eggs; 15% 2-undecanone, exposure about one to about five second",about 100%
same,time to evaporate,[1],≤ 30 min
same,killing of lice stages,lice,kill all stages of the lice
same,residual activity against eggs,eggs,minimal residual activity
